Test results: paper PMC5537305, “Photo-enhanced Aqueous Solubilization of an Azo-compound” (Scientific Reports, 2017)
In brackets after ≈: the same amount, converted by molar mass. Several values for one entry are separate records, joined by “and”; a condition that tells them apart may be missing. Equal entries are not always repeated. Where two headings read alike, the source gives them in different places.

Columns and labels:
[1] = Aqueous solubilization in 1/15 M phosphate buffer (pH 7.4) under UV, visible light or dark, with cis ratio in solution by HPLC; assay type: physicochemical; details: for increase of aqueous solubilization, UV irradiation vs dark: mercury lamp 0.5 mW/cm2; for Aqueous solubilized 3: successive irradiations
Procedure: Table S3. Cis ratio and aqueous solubilization of 3 under UV irradiation, under visible light irradiation, and in […]
Compound 3 was shaken at 37 °C under UV irradiation, under visible light irradiation, and in the dark. UV irradiation was performed with a mercury lamp (0.5 mW/cm2). Cis ratio in the aqueous solution was evaluated from the peak areas in HPLC immediately after filtration.
(§1) Table S4. Aqueous solubilization and cis ratio of 3 under irradiation at various wavelengths through filters of […]
Illumination was performed with a xenon lamp using repeated cycles of irradiation and shaking (5000 flashes, then shaking for 10 sec) through filters of various bandwidths at room temperature (20-22 °C) for 1 h. The cis ratio in the aqueous solution was evaluated by HPLC immediately after filtration, based on peak area.
Table S5. Aqueous solubilization of 3 under UV irradiation at various intensity levels.
Sample irradiation was conducted using 365 nm LED light (max light intensity: 290 mW/cm2) at 37 °C for 1 […]
Sample irradiations were conducted with the white light through a filter cutting off wavelengths below 560 nm, or with 365 nm LED light (344 mW/cm2) at 37 °C for 1 h.
Table S7. Aqueous dissolution of UV-irradiated crystals of 3 measured in the dark, and the cis ratio contained […]
Crystals of 3 were irradiated with 365 nm LED light (344 mW/cm2) at 37 °C for 3 h.
The UV-irradiated crystals and unirradiated crystals were each shaken in phosphate buffer in the dark at 37 °C for 1 h.
Physicochemical properties […]
Compound 3 (about 0.2 mg) was ground and taken up in 1/15 M phosphate buffer (pH 7.4, 1.0 mL) in a 10 mL glass tube. The suspension was incubated under ultrasound irradiation for 10 min, and shaken in a temperature controllable incubator located in a dark room for the indicated time at the indicated temperature.
With shaking on a plate shaker, a sample was irradiated with a 365 nm mercury lamp (4 W, UVP compact […]
white LED light (5 W, Nikki Trading Corp., NLSS05BM, 68 and 54 mW/cm2 at 450 and 540 nm, respectively) through a filter cutting off wavelengths below 560 nm (Atto Corp. YA-3). Irradiation was done from the top of the sample glass tube. Then, the suspension was filtered through a Millipore Millex-LG (0.20 […]
For irradiation at various UV wavelengths, 3 (about 0.1 mg) was ground and taken up in 1/15 M phosphate buffer (pH 7.4, 0.2 mL) in a well of a 96-well white plate. Illumination over a range of wavelength from 355-540 nm was performed using a plate reader EnVision equipped with a xenon flash lamp (35 W, 500 Hz), with excitation filters of appropriate bandwidths.

[2] = Aqueous solubilization of 3 under irradiation at various wavelengths (xenon flash lamp, 96-well plate); assay type: physicochemical; details: for solubility at 1 h: phosphate buffer, 21 °C, pH 7.4, aqueous buffer, thermodynamic from solid, read-out: Aqueous solubilized 3; for solubility at 1 h / Cis ratio: 1 h
Procedure: as §1
Illumination was performed with a xenon lamp using repeated cycles of irradiation and shaking (5000 flashes, then shaking for 10 sec) through filters of various bandwidths at room temperature (20-22 °C) for 1 h. The cis ratio in the aqueous solution was evaluated by HPLC immediately after filtration, based on peak area. […]
For irradiation at various UV wavelengths, 3 (about 0.1 mg) was ground and taken up in 1/15 M phosphate buffer (pH 7.4, 0.2 mL) in a well of a 96-well white plate. Illumination over a range of wavelength from 355-540 nm was performed using a plate reader EnVision equipped with a xenon flash lamp (35 W, 500 Hz), with excitation filters of appropriate bandwidths. A protocol of irradiation and shaking cycles (5000 flashes, then shaking for 10 sec) was repeated for 1 h at room temperature (20-22 °C). Then, the suspension was filtered through a Millipore Millex-LG (0.20 µm).

[3] = wavelength 380 nm, bandwidth 10 nm, room temperature
[4] = wavelength 405 nm, bandwidth 8 nm, room temperature
[5] = wavelength 450 nm, bandwidth 8 nm, room temperature
[6] = wavelength 485 nm, bandwidth 14 nm, room temperature
[7] = wavelength 535 nm, bandwidth 25 nm, room temperature
[8] = wavelength 540 nm, bandwidth 8 nm, room temperature

CC(C)n1nc(/N=N/c2ccccc2)c2c(N)ncnc21 [Compound 3]
cis ratio in solution after UV irradiation ([1]; 365 nm LED, roughly constant, independent of light intensity): ~90%
increase of aqueous solubilization, UV irradiation vs dark ([1]; 0.5 h, 37 °C): 3.5 fold
increase of aqueous solubilization, UV irradiation vs dark ([1]; 1 h, 37 °C): 5.0 fold
increase of aqueous solubilization, UV irradiation vs dark ([1]; 5 h, 37 °C): 7.1 fold and 7 fold
cis ratio ([1]; Dark, 37 °C, shake time 0.5 h): 6%
cis ratio ([1]; Dark, 37 °C, shake time 1 h): 4%
cis ratio ([1]; Dark, 37 °C, shake time 5 h): 7%
cis ratio ([1]; UV light (mercury lamp 0.5 mW/cm2), 37 °C, shake time 0.5 h): 77%
cis ratio ([1]; UV light (mercury lamp 0.5 mW/cm2), 37 °C, shake time 1 h): 80%
cis ratio ([1]; UV light (mercury lamp 0.5 mW/cm2), 37 °C, shake time 3 h): 80%
cis ratio ([1]; UV light (mercury lamp 0.5 mW/cm2), 37 °C, shake time 5 h): 75%
cis ratio ([1]; UV light (mercury lamp 0.5 mW/cm2), 37 °C, shake time 8 h): 87%
cis ratio ([1]; Visible light, 37 °C, shake time 1 h): 25%
cis ratio ([1]; Visible light, 37 °C, shake time 5 h): 25%
cis ratio ([1]; light intensity 0.00 mW/cm2, 365 nm LED, 37 °C, 1 h): 4%
cis ratio ([1]; light intensity 4.56 mW/cm2, 365 nm LED, 37 °C, 1 h): 89%
cis ratio ([1]; light intensity 29.0 mW/cm2, 365 nm LED, 37 °C, 1 h): 92%
cis ratio ([1]; light intensity 290 mW/cm2, 365 nm LED, 37 °C, 1 h): 90%
increase of aqueous solubilization compared with the dark condition ([1]; maximum irradiation intensity 290 mW/cm2, 365 nm LED, 37 °C, 1 h): 23 fold
increase of aqueous solubilization by exposure to UV light ([1]; phosphate buffer, compared to without irradiation, up to): up to 20 fold
solubility at 1 h ([1]; phosphate buffer, pH 7.4, 46 °C, after 1 h, read-out: aqueous solubility): 3.5 µg/mL
solubility at 24 h ([1]; phosphate buffer, pH 7.4, 46 °C, after 24 h): 3.2 µg/mL
solubility at 1 h ([1]; phosphate buffer, pH 7.4, Dark, 37 °C, shake time 1 h, read-out: Solubility): 3 µg/mL
solubility at 0.5 h ([1]; phosphate buffer, pH 7.4, UV light (mercury lamp 0.5 mW/cm2), 37 °C, shake time 0.5 h, read-out: Solubilized 3): 11.1 µg/mL
solubility at 1 h ([1]; phosphate buffer, pH 7.4, UV light (mercury lamp 0.5 mW/cm2), 37 °C, shake time 1 h, read-out: Solubilized 3): 14.9 µg/mL
solubility at 3 h ([1]; phosphate buffer, pH 7.4, UV light (mercury lamp 0.5 mW/cm2), 37 °C, shake time 3 h, read-out: Solubilized 3): 18.4 µg/mL
solubility at 5 h ([1]; phosphate buffer, pH 7.4, UV light (mercury lamp 0.5 mW/cm2), 37 °C, shake time 5 h, read-out: Solubilized 3): 24.7 µg/mL
solubility at 8 h ([1]; phosphate buffer, pH 7.4, UV light (mercury lamp 0.5 mW/cm2), 37 °C, shake time 8 h, read-out: Solubilized 3): 24.2 µg/mL
solubility at 1 h ([1]; phosphate buffer, pH 7.4, Visible light, 37 °C, shake time 1 h, read-out: Solubilized 3): 4.6 µg/mL
solubility at 5 h ([1]; phosphate buffer, pH 7.4, Visible light, 37 °C, shake time 5 h, read-out: Solubilized 3): 5.1 µg/mL
solubility at 1 h ([1]; phosphate buffer, pH 7.4, light intensity 4.56 mW/cm2, 365 nm LED, 37 °C, 1 h, read-out: Aqueous solubilized 3): 12.3 µg/mL
solubility at 1 h ([1]; phosphate buffer, pH 7.4, light intensity 29.0 mW/cm2, 365 nm LED, 37 °C, 1 h, read-out: Aqueous solubilized 3): 36.2 µg/mL
solubility at 1 h ([1]; phosphate buffer, pH 7.4, light intensity 290 mW/cm2, 365 nm LED, 37 °C, 1 h, read-out: Aqueous solubilized 3): 69.6 µg/mL
solubility ([1]; phosphate buffer, pH 7.4, phosphate buffer, in the dark, after 0.5, 1 and 5 h at 37 °C, read-out: aqueous solubility): ~3 µg/mL
solubility ([1]; phosphate buffer, pH 7.4, white-light irradiation, after 1 and 5 h, 37 °C, read-out: solubilization): ~5 µg/mL
Aqueous solubilized 3 ([1]; step 1: visible (white light, filter cutting off below 560 nm), 37 °C, 1 h): 1.0 fold
Aqueous solubilized 3 ([1]; step 2: UV 365 nm LED 344 mW/cm2, 37 °C, 1 h): 35.5 fold
Aqueous solubilized 3 ([1]; step 3: visible, 37 °C, 1 h): 2.3 fold
Aqueous solubilized 3 ([1]; step 4: UV 365 nm LED 344 mW/cm2, 37 °C, 1 h): 37.9 fold
Aqueous solubilized 3 ([1]; step 5: visible, 37 °C, 1 h): 2.9 fold
trans ratio at photostationary state (maximum) ([2]; irradiation at 535 nm): 93%
solubility at 1 h ([2]; wavelength 355 nm, bandwidth 40 nm, room temperature (20-22 °C)): 4.8 µg/mL (≈ 17.1 µM)
solubility at 1 h [2, 3]: 2.8 µg/mL (≈ 9.95 µM)
solubility at 1 h [2, 4]: 2.4 µg/mL (≈ 8.53 µM)
solubility at 1 h [2, 5]: 0.75 µg/mL (≈ 2.67 µM)
solubility at 1 h [2, 6]: 0.47 µg/mL (≈ 1.67 µM)
solubility at 1 h [2, 7]: 0.57 µg/mL (≈ 2.03 µM)
solubility at 1 h [2, 8]: 0.28 µg/mL (≈ 0.995 µM)
Cis ratio ([2]; wavelength 355 nm, bandwidth 40 nm, room temperature): 90%
Cis ratio [2, 3]: 90%
Cis ratio [2, 4]: 78%
Cis ratio [2, 5]: 44%
Cis ratio [2, 6]: 20%
Cis ratio [2, 7]: 7%
Cis ratio [2, 8]: 7%
